Test results taken from patent US20240226042A9, “A PROPYL PROPANE THI[…] FOR USE AS ANTITUMORAL” (DMC RESEARCH CENTER, SL, priority 2021, published 2024).

Assays:
[1] = test system: HT-29 (human colorectal carcinoma line); details: HT-29 cells, 72 hours induction, SRB; means±SEM of six independent determinations
Protocol: (§1) Adherent cells (MCF-7, A-549, T-84, HT-29 and Panc-1), were detached from the surface of the culture flasks, using 3-4 ml of trypsin 1×, and left to act for 5-10 minutes in an incubator at 37° C. with 5% CO2. Once the cells were detached, the trypsinization was stopped, adding to the medium flask the same amount of complete culture as trypsin used to detach cells. After resuspending the mixture of trypsin and detached cells several times, the content of the culture flask was transferred to a sterile tube to centrifugation it for 5 minutes at 1500-1600 rpm.
(§2) Adherent cells were incubated for 24 hours to get cells attached to the surface of the flask. Then, the culture medium was replaced for a new medium, to which increasing concentrations of PTSO had been added, and the induction was conducted for 72 hours.

[2] = test system: MCF-7 (human breast adenocarcinoma line)
Protocol: as §1, §2

[3] = test system: Panc-1 (human pancreatic carcinoma line); details: Panc-1 cells, 72 hours induction, SRB; means±SEM of six independent determinations
Protocol: as §1, §2

[4] = test system: A-549 (human lung adenocarcinoma line); details: A-549 cells, 72 hours induction, SRB; means±SEM of six independent determinations
From the text: (§3) A-549 (Reference CCL-185 of the American Type Culture Collection): It is a tumor line of basal alveolar epithelium that comes from a pulmonary adenocarcinoma removed from a patient. These cells are squamous and can synthesize lecithin. T-84 (Reference CCL-248 of the American Type Culture Collection): It is a tumor line with epithelial morphology, isolated from a pulmonary metastasis of a colorectal carcinoma of a patient. These cells present receptors for a large group of hormones and neurotransmitters, and they produce carcinoembryonic antigen (CEA) and keratin, among other cellular products.
as §1
(§4) Adherent cells were incubated for 24 hours to get cells attached to the surface of the flask. […]

[5] = test system: T-84 (human colorectal adenocarcinoma line); details: T-84 cells, 72 hours induction, SRB; means±SEM of six independent determinations
From the text: as §3, §1, §4

[6] = test system: Jurkat (human tumor T lymphocytes line)
Protocol: as §2

[7] = test system: normal human peripheral blood mononuclear cells (PBMCs); details: normal PBMCs from healthy volunteers, 72 hours induction, MTT; means±SEM of six independent determinations
Protocol: as §2

rats = details: OECD guideline 408, 90-days oral subchronic toxicity study; cited from earlier work

CCCSS(=O)(=O)CCC [PTSO, propyl propane thiosulfonate]
IC50 [1]: 50.8 µM
in vitro T.I (IC50 Normal Line/IC50 Tumor Line) ([2]; IC50 PBMCs / IC50 MCF-7 tumor line): 36.0
IC50 ([2]; MCF-7 cells, 72 hours induction, SRB, means±SEM of six independent determinations): 6.9 µM
IC50 [3]: 33.8 µM
IC50 [4]: 38.6 µM
IC50 [5]: 37.3 µM
in vitro T.I (IC50 Normal Line/IC50 Tumor Line) ([6]; IC50 PBMCs / IC50 Jurkat tumor line): 15.8
IC50 ([6]; Jurkat cells, 72 hours induction, MTT, means±SEM of six independent determinations): 15.7 µM
IC50 [7]: 248 µM
no-observed-adverse-effect level (NOAEL) (rats): 55 mg/kg/day
